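1) Cells in 96-well plates. 2) Compound, 48 h, 5 concentrations. 3) Linear interpolation between surrounding doses. 4) Unreached endpoint = highest concentration. GI50: concentration for 50% inhibition of growth. TGI marks complete inhibition of growth.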 Where a SMILES comes first, the peptide text is derived from it.

Consider 32 compounds from PubChem BioAssay (NCI).

Common to all, as to assay: growth of human tumour cells (NCI), 48 h
Experiment [1] deals with CCRF-CEM leukemia.
Experiment [2] deals with HS 578T breast.
Experiment [3] concerns NCI-H23 lung.
The test system of experiment [4] is NCI-H460 lung.
Experiment [5] relates to UACC-257 melanoma.
Experiment [6] deals with A549 NSCLC.
In experiment [7] the test system is SNB-19 CNS.
The subject of experiment [8] is HOP-18 NSCLC.
The test system of experiment [9] is DLD-1 colon.
The subject of experiment [10] is M19-MEL melanoma.
For experiment [11], the system named is LXFL 529 NSCLC.
Experiment [12] has as its system XF 498 CNS.
The subject of experiment [13] is SNB-78 CNS.

Turning to `O=C1CC2(CCC(O)(c3cccs3)C(C(=O)c3cccs3)C2)C(=O)c2ccccc2N1` (centres undefined), the TGI in [1] was greater than 100 µM; in experiment [2], greater than 100 µM; in [3], greater than 100 µM; in experiment [4], 46.6 µM; in experiment [5] it was greater than 100 µM; in [6], greater than 100 µM.

As to `C1=CC(=[N+]2N=C(c3ccccc3)CC2c2ccccc2)C=CC1=C1SC(c2ccccc2)(c2ccccc2)c2ccccc21` (centres undefined), the TGI in experiment [1], in experiment [2], in experiment [3], in experiment [4], in [7] and in [6] was greater than 100 µM in each case.

Take `N#Cc1c(N)nc2c(c1-c1ccc(Br)cc1)CSc1ccccc1-2`: the TGI in experiment [1] is 92 µM; in experiment [2], greater than 100 µM; in experiment [3], greater than 100 µM; in [4], greater than 100 µM; in [7] it was greater than 100 µM; in experiment [5], 72.5 µM. In experiment [6], this compound gave a TGI greater than 100 µM.

As for `Nc1ccc(Oc2ccc(C34CC5CC(C3)CC(c3ccc(Oc6ccc(N)cc6)cc3)(C5)C4)cc2)cc1`, the TGI in experiment [1] was greater than 100 µM; in experiment [2], greater than 62.8 µM; in experiment [3], 37.4 µM; in experiment [4], 22.6 µM; in [7] it was 38.7 µM; in [5], 40.9 µM. Also, the TGI in experiment [6] was greater than 60.7 µM.

Regarding `O=c1c2ccccc2[nH]c(=S)n1-c1ccc(N=Nc2cccc3cc(O)ccc23)cc1`, the TGI in experiment [1], in [2], in experiment [3], in [4], in experiment [7] and in [5] was greater than 100 µM throughout. The compound also returned a TGI in [6] greater than 100 µM.

Regarding `O=[N+]([O-])c1ccc2c(c1)nc(Cc1ccc(Cl)cc1)n2C[C@@H]1CCCN2CCCCC12` (some centres undefined), the TGI in experiment [1] was greater than 44.5 µM; in experiment [2], 43.3 µM; in experiment [3], 34.3 µM; in experiment [4], 31.2 µM; in experiment [7], 50.5 µM; in [5], 31.4 µM. Further, the TGI in experiment [6] amounted to 42.1 µM.

`Cc1cc(=O)[nH]c(/N=C(\N)Nc2ccc(Cl)cc2)n1`: the TGI in experiment [1], in [2], in [3], in [4], in [7] and in experiment [5] was greater than 100 µM in each case. For the same compound, in [6], the TGI was greater than 100 µM.

Regarding `O=c1[nH]c(Nc2ccc(Cl)cc2)nc2nc[nH]c12`, the TGI is 92.2 µM in experiment [2]; greater than 100 µM in experiment [3]; greater than 100 µM in experiment [4]; greater than 100 µM in experiment [7]; greater than 100 µM in [5]; greater than 100 µM in experiment [6].

In the case of `COC(=O)C1=C(O)CCCC(CCC(C)=O)=C1`, the TGI in [1] is 25.2 µM; in experiment [2], greater than 100 µM; in [3], greater than 100 µM; in experiment [4], greater than 100 µM; in experiment [7] it was greater than 100 µM; in [5], greater than 100 µM. Also, in experiment [6], the TGI is greater than 100 µM.

As to `COc1ccc(C2c3cc4c(cc3OC(O)(CO)C2C(=O)O)OCO4)cc1` (centres undefined) (tested in a mixture with another compound), the TGI in experiment [1] is 55.5 µM; in experiment [3], 50.8 µM; in [4], 36.3 µM; in experiment [8], greater than 100 µM; in experiment [5], 50.8 µM; in [9], 54.9 µM. The TGI in experiment [10] was 21.3 µM; in experiment [11] it was 31.1 µM; in experiment [12] it was 16.6 µM; in [13] it was 59 µM; in experiment [6] it was greater than 100 µM.

In the case of `O=S(=O)(O)c1cc(N=[N+]([O-])c2cc(S(=O)(=O)O)c3ccccc3c2)cc2ccccc12`, the TGI in experiment [1] was greater than 100 µM; in [2], greater than 100 µM; in [3], 77 µM; in experiment [4] it was greater than 100 µM; in experiment [7] it was greater than 100 µM; in experiment [5], greater than 100 µM. Further, the TGI in experiment [6] was greater than 100 µM.

Take `COC(CN(C=O)[C@@H](c1ccc(Cl)cc1)c1cc2ccccc2o1)OC`: the TGI was found to be 44 µM in [1]; 27.6 µM in [2]; 39.2 µM in experiment [3]; 33.3 µM in experiment [4]; 41.2 µM in experiment [7]; 28 µM in [5]. In addition, the TGI in experiment [6] was 45.4 µM.

Consider `Cc1ccccc1NC(=O)CC(=O)N1N=C(N2c3ccccc3Sc3ccccc32)CC1c1ccccc1` (centres undefined), for which the TGI in [3], in experiment [4], in experiment [7], in experiment [5], in experiment [9] and in [10] was greater than 100 µM in each case. For the same compound, the TGI in experiment [11], in experiment [12], in [13] and in experiment [6] was greater than 100 µM in each case.

For `C/C(N=Nc1nc2ccccc2[nH]1)=C1/C=CC=CN1O`, the TGI in experiment [1], in experiment [2], in [3], in experiment [4], in experiment [7] and in experiment [5] was greater than 100 µM in each case. Moreover, the TGI in experiment [6] is greater than 100 µM.

Take `CSCCC(NC(=O)OCc1ccccc1)P(=O)(O)c1ccccc1` (centres undefined): the TGI in experiment [1], in [2], in [3], in experiment [4], in [7] and in [5] was greater than 100 µM in each case. The TGI in [6] is greater than 100 µM.

For the compound `CCC(C)C(NC(=O)C1CCCN1C(=O)C(CC(C)C)NC(=O)C(CC(C)C)NC(=O)C(N)CC(C)C)C(=O)NC(C(=O)NCC(=O)NC(CC(N)=O)C(=O)NC(CC(C)C)C(=O)NC(CC(C)C)C(=O)NC(CC(C)C)C(N)=O)C(C)C` (centres undefined) (H-LLLPIVGNLLL-NH2; configuration not given here), the TGI in [1], in [2], in experiment [3], in experiment [7], in experiment [5] and in experiment [6] was greater than 50 µM in each case.

With `CCCCCOC(=O)c1cc2cc(CCl)ccc2oc1=O`, the TGI in experiment [1] was greater than 81.1 µM; in experiment [2] it was greater than 42.8 µM; in experiment [3], 17.2 µM; in [4], 34.9 µM; in experiment [7] it was greater than 76.8 µM; in [5], 5.96 µM. Moreover, in [6], the TGI turned out to be 41 µM.

In the case of `O=C(O)C(O)C(O)C(O)C(=O)CO` (centres undefined), the TGI in experiment [1], in [2], in [3], in experiment [4], in experiment [7] and in experiment [5] was greater than 100 µM throughout. Also, the TGI in experiment [6] was greater than 100 µM.

For `Nc1ccc(-c2nc3cc(F)ccc3s2)cc1CO`, the TGI was greater than 100 µM in experiment [1]; greater than 100 µM in [2]; 42.1 µM in [3]; greater than 100 µM in [4]; greater than 90.6 µM in [7]; greater than 100 µM in experiment [5]. Also, the TGI in [6] was greater than 100 µM.

Turning to `Cc1nc2ncn3c(c-2c1Cc1ccccc1)NC=C(O)N3`, the TGI in [1], in experiment [2], in experiment [3], in experiment [4], in [7] and in experiment [5] was greater than 100 µM throughout. The compound also yielded a TGI in experiment [6] greater than 100 µM.

With `Nc1cc(-c2ccc(Cl)cc2)nn1-c1nc2ccccc2nc1-c1ccccc1`, the TGI in [1], in experiment [2], in [4], in experiment [7], in experiment [5] and in experiment [6] was greater than 100 µM in each case.

On to `Cc1cnoc1NS(=O)(=O)c1ccc(Nc2nnc(/C=C/c3c(O)ccc4ccccc34)c(=O)n2N)cc1`, for which the TGI in experiment [1] is greater than 100 µM; in experiment [2] it was greater than 100 µM; in [3], 32 µM; in experiment [7], greater than 100 µM; in experiment [6], greater than 100 µM.

Consider `COc1ccc(C(=O)N(C(=O)N2CCN(c3ccccc3)CC2)S(=O)(=O)c2ccccc2)cc1`, for which the TGI was greater than 100 µM in [1]; 79.5 µM in experiment [2]; 73.2 µM in [3]; greater than 100 µM in experiment [4]; 74.9 µM in experiment [7]; greater than 100 µM in [5]. Besides, the TGI in experiment [6] was found to be 88.8 µM.

In the case of `COc1cc([C@@H]2c3cc4c(cc3[C@@H](c3c(O)cc(O)c5c3O[C@H](c3ccc(O)c(O)c3)[C@H](OC(=O)c3cc(O)c(O)c(O)c3)C5)[C@H]3COC(=O)[C@H]23)OCO4)cc(OC)c1OC`, the TGI was 16.2 µM in experiment [1]; greater than 100 µM in experiment [2]; greater than 100 µM in [3]; 96.9 µM in experiment [4]; greater than 100 µM in [7]; greater than 100 µM in experiment [5]. In [6], this compound registered a TGI greater than 100 µM.

Regarding `CCCN1C(=O)CSC1=Nc1ccc2cc3ccc(N=C4SCC(=O)N4CCC)cc3nc2c1`, the GI50 is greater than 100 µM in [1]; 35.8 µM in [2]; 71.1 µM in experiment [3]; 66.3 µM in experiment [4]; 95.4 µM in experiment [7]; greater than 100 µM in experiment [5]. Also, the GI50 in experiment [6] is greater than 100 µM. For the same compound, the TGI in [1], in [2], in experiment [3], in experiment [4], in experiment [7] and in experiment [5] was greater than 100 µM in each case. This compound also displayed a TGI in experiment [6] greater than 100 µM.

Take `CC(=O)c1ccc2c(c1)N(CCCN1CCN(CCO)CC1)c1ccccc1C2`: the TGI in experiment [1] was 28.2 µM; in experiment [2], 31.2 µM; in [3], 30.1 µM; in experiment [4], 31 µM; in experiment [7] it was 33.8 µM; in experiment [5] it was 18.9 µM. In [6], this compound displayed a TGI of 33.3 µM.

In the case of `NC(=S)N1N=C(c2ccccc2O)CC1c1ccccc1` (centres undefined), the TGI is greater than 100 µM in [1]; 72.4 µM in experiment [2]; 61.3 µM in experiment [3]; 35.6 µM in [4]; greater than 100 µM in experiment [7]; 39.1 µM in [5]. The same compound gave a TGI in experiment [6] of 84.6 µM.

Take `CC(C)C1OC(=O)/C=C/C=C/C=C/C=C/C=C/CC(O)C(C)C(O)CC(O)CC(O)CC(O)CC(O)CC(O)CC(O)/C=C/C1C` (centres undefined): the GI50 in [1] was 5.11 µM. Further, the TGI in experiment [1], in experiment [2], in [3], in experiment [4], in experiment [7] and in experiment [5] was greater than 100 µM throughout. The compound also displayed a TGI in experiment [6] greater than 100 µM.

`O=C1/C(=C\c2ccc(F)cc2)CCOc2c1ccc1ccccc21`: the TGI in [1] was 35.9 µM; in experiment [2] it was greater than 84.9 µM; in experiment [3], 39.4 µM; in experiment [4], 97.9 µM; in [7], greater than 100 µM; in experiment [5], 54.4 µM. The TGI in [6] was greater than 70.3 µM.

For the compound `COC(=S)OC1CC(n2cnc3c(N)ncnc32)OC1CO[Si](C)(C)C(C)(C)C` (centres undefined), the TGI in [1] is 75.9 µM; in experiment [3] it was 38.7 µM; in [4], 48.1 µM; in experiment [7] it was greater than 100 µM; in experiment [5], 72.8 µM.

Turning to `CC(=O)Oc1ccc(CO)cc1OC(C)=O`, the TGI in experiment [1] was 76.1 µM; in experiment [4], greater than 100 µM; in experiment [7] it was greater than 100 µM; in experiment [8] it was greater than 100 µM; in experiment [5], greater than 100 µM; in experiment [9] it was greater than 100 µM. Besides, the TGI in experiment [10], in [11], in experiment [12], in experiment [13] and in [6] was greater than 100 µM each time.

For `COc1cc2c(cc1C)NC(=O)/C2=C/c1c(Cl)n(-c2ccccc2)c2ccccc12`, the TGI is 30.8 µM in experiment [1]; greater than 100 µM in [2]; 81.8 µM in [3]; 30.4 µM in experiment [4]; greater than 100 µM in experiment [7]; 61.7 µM in [5]. The TGI in experiment [6] was greater than 100 µM.
